According to patent publication EP4483904A1, “POLYOXOMETALATES AS MEMBRANE CARRIERS” (Universität Wien, priority 2023, dated 2025):
Blank lines part the entries; values can stand above or below the molecule they belong to.

Legend:
[1] = Stability investigation by NMR spectroscopy (hydrolysis in buffer/media); assay type: physicochemical; conditions: for Hydrolysis/Stability pH 7.5: 10 mM Hepes or 10 mM Tris, pH 7.4; for Hydrolysis/Stability pH 7.5 / Hydrolysis/Stability pH 5.5: 107 mM NaCl; for Hydrolysis/Stability pH 5.5: 10 mM Mes; for long-term stability in aqueous solution: slightly acidic and neutral pH, 24 h and longer, NMR
Excerpt: POMs of the globular Keggin and planar Anderson archetype and with varying charge status from -3 to -8 (Fig. 1) were selected. To offset the known [XW12O40]^n- (X = hetero-ion) hydrolysis propensity in aqueous solution, most pronounced at neutral pH, more highly charged mixed-metal derivatives (Fig. 1,lefthand side) were also included. The latter are obtained by hydrolytic removal of one W=O^4+ unit from the Keggin structure and the subsequent incorporation of an addenda metal to fill the cavity of the monolacunary intermediate. In detail, the following POM anions were studied (as acid or sodium, potassium, or tetraalkylammonium salts), see Fig. 1: [α-P^VW^VI12O40]^3- ([PW12]^3-), [α-Si^IVW^VI12O40]^4- ([SiW12]^4-), [α-Al^IIIW^VI12O40]^5- ([AlW12]^5-), [α-P^VV^VW^VI11O40]^4- ([PVW11]^4-), [α-Si^IVMo^VIW^VI11O40]^4- ([SiMoW11]^4-), [α- HAl^IIIGe^IVW^VI11O39(H2O)]^5- ([GeAlW11]^5-), [{α-P^VW^VI11O39Zr^IV(µ-OH)(H2O)}2]^8- ([(PZrW11)2]^8-), and [Al^III(OH)6Mo^VI6O18]^3- ([AlMo6]^3-). First, their long-term (24 h and longer) stability in aqueous solution (slightly acidic and neutral) was investigated by applying the active NMR nuclei in their composition (see).

[2] = Transport experiments in CF-loaded zwitterionic EYPC vesicles (CF fluorescence, Hill analysis); assay type: biochemical; set-up: key to membrane transport activity: - - -: No detectable activity at pH 5.5 and 7.4; conditions: for membrane transport activity: pH 5.5 and 7.4, heptaArg, protamine, polyArg (for [AlMo6]^3- heptaArg and protamine only); for behaviour towards liposomes at strongly acidic pH: pH 1.2
Method: The dry film was rehydrated with 1 mL buffer (50 mM CF, 10 mM Hepes, pH 7.4 or 50 mM CF, 10 mM Tris, pH 7.4) for 30 min at room temperature, subjected to freeze-thaw cycles (7 times) and extrusions (15 times) through a polycarbonate membrane (pore size 100 nm). Extravesicular components were removed by size exclusion chromatography (NAP-25 column Sephadex G-25 DNA grade) with 10 mM Hepes, 107 mM NaCl, pH 7.4 or 10 mM Hepes, 107 mM NaCl, pH 7.4. Phospholipid concentration was calculated by the Stewart assay. […]
Vesicles stock solutions (5-10 µL) were diluted with the corresponding buffer in a disposable plastic cuvette and gently stirred (total volume 2000 µL, final lipid concentration 13 µM). […] Fluorescence intensities were normalized to fractional emission as: I(t) = (It −I0)/(I∞ −I0) [formula]
Where I0 = It before POM addition and […] = I∞ after lysis. For Hill analysis, It before lysis was defined as transport activity, Y, and plotted against POM concentration, c, and fitted to the Hill equation (2), to afford the activity in absence of POM, Y0, the maximal activity, Ymax, the concentration needed to achieve 50 % of maximal activity, EC50, and the Hill coefficient, n. Y = Y0 + (Ymax −Y0)/(1 + (((EC50)/(c)))^n) [formula]
In the transport measurements, where different carriers (POMs) are tested with the same cargo, the activator efficiency (E) is determined by their capacity to transport the impermeable cargo to the intravesicular region and is characterized by Ymax, its maximal activity, and EC50, the effective activator concentration. An ideal carrier reaches high Ymax at low EC50. To count both factors, the activator efficiency is defined as: E = Ymax (pEC50)/(f) [formula] were pEC50 is the negative logarithm of the EC50, and fa scaling factor, which was set to 20.6 to calibrate the highest (previously known) activation efficiency, E, as 10.
The capability of POMs to act as membrane carriers was explored first in large unilamellar vesicles (LUVs), loaded with carboxyfluorescein (CF). We selected […] representative cationic peptides, heptaarginine (heptaArg), heptalysine (heptaLys), protamine, and polyarginine (polyArg), as test cargos. Inside the LUVs, the CF dye was encapsulated at self-quenching concentrations. With a suitable carrier, heptaArg can be taken up into the vesicles, bind with entrapped CF, and shuttle back to the exterior, spreading the previously quenched CF, and thereby restoring its fluorescence (Fig. 3). In the time-resolved fluorescence experiments, to test whether a POM acts as molecular carrier, the CF emission was continuously monitored during the addition of the inorganic carrier (t = 60 s) and after injection the impermeable heptaArg (t = 120 s). At the end of the experiment (t = 600 s), the surfactant Triton X-100 was added to release all the entrapped CF and allow normalization of the intensity data (Fig. 4a).

[3] = HPTS/DPX assay of membrane transport in EYPC vesicles; assay type: biochemical; conditions: Measured by HPTS/DPX assay
[4] = EYPC vesicles, 0.1 µM polyArg, neutral pH 7.4
[5] = EYPC vesicles, 0.1 µM polyArg, neutral pH 7.4, read-out: PolyArg EC50
[6] = EYPC vesicles, 1 µM protamine, neutral pH 7.4
[7] = Tris-HCl pH 7.5 freshly prepared

Hydrolysis/Stability pH 7.5 [1]: stable | POM anions with % for parent (active) anion based on signals integration ([1]; Tris-HCl pH 7.5 after 1 day): [HAl^IIIGe^IVW^VI11O39(H2O)] ^4- | POM anions with % for parent (active) anion based on signals integration [1, 7]: [HAl^IIIGe^IVW^VI11O39(H2O)] ^4- | long-term stability in aqueous solution [1]: stable at neutral pH
Molecule: (C4H12N)4[α-HAl^IIIGe^IVW^VI11O39(H2O)]·11H2O [[GeAlW11]^5-]
membrane transport activity ([2]; EYPC vesicles): - - -[j]

Hydrolysis/Stability pH 7.5 [1]: to [Si^VW^VI8O39]^8- | hydrolysis above pH 4.5 [1]: rapid hydrolysis | long-term stability in aqueous solution [1]: fully hydrolyzed
Molecule: K4[α-Si^IVW^VI12O40]·14H2O [[SiW12]^4-]
POM anions with % for parent (active) anion based on signals integration ([1]; Hepes pH 7.5 (time not given)): [Si^IVW^VI12O40]^4- and [Si^IVW^VInO39]^8- (high noise to signal ratio, correct integration of peak cannot be performed; but clearly [Si^IVW^VI11O39]^8- is predominant) | membrane transport activity ([2]; EYPC vesicles): - - -[jilt] | behaviour towards liposomes at strongly acidic pH [2]: showed the desired cargo transport at acidic pH, without membrane disruption

Hydrolysis/Stability pH 5.5 [1]: to [P^VW^VI11O39]^7- | % of hydrolysis product [P^VW^VI11O39]^7- based on signals integration ([1]; Mes pH 5.5 after 1 day): 61% | POM anions with % for parent (active) anion based on signals integration ([1]; Mes pH 5.5 after 1 day): 5% | % of hydrolysis product [P^VW^VI11O39]^7- based on signals integration ([1]; Mes pH 5.5 freshly prepared): 61% | POM anions with % for parent (active) anion based on signals integration ([1]; Mes pH 5.5 freshly prepared): 4% | hydrolysis above pH 4.5 [1]: rapid hydrolysis | long-term stability in aqueous solution [1]: fully hydrolyzed
Molecule: Na3[α-P^VW^VI12O40]·nH2O [[PW12]^3-]
POM anions with % for parent (active) anion based on signals integration ([1]; NaOAc/HOAc pH 4 after 1 day): [P^VW^VI12O40]^3- (28 %) and intermediate anions | POM anions with % for parent (active) anion based on signals integration ([1]; NaOAc/HOAc pH 4 freshly prepared): [P^VW^VI12O40]^3- (30 %) and intermediate anions | membrane transport activity ([2]; EYPC vesicles): - - -[j,k] | behaviour towards liposomes at strongly acidic pH [2]: strong interaction and membrane disruption

Hydrolysis/Stability pH 7.5 [1]: stable | POM anions with % for parent (active) anion based on signals integration ([1]; Tris-HCl pH 7.5 after 1 day): [Al^IIIW^VI12O40]^5- | POM anions with % for parent (active) anion based on signals integration [1, 7]: [Al^IIIW^VI12O40]^5- | long-term stability in aqueous solution [1]: stable at neutral pH
Molecule: Na5[α-Al^IIIW^VI12O40]·12H2O [[AlW12]^5-]
membrane transport activity ([2]; EYPC vesicles): - - -[j]

Further lines, the molecule ahead of its results:

Molecule: O=C(O)CCCc1ccc2ccc3cccc4ccc1c2c34 [PyBu^-, pyrenebutyrate, reference compound]
Hydrolysis/Stability pH 7.5 [1]: stable | Hydrolysis/Stability pH 5.5 [1]: stable | PolyArg E (activation efficiency) [2, 4]: 8.5 | PolyArg Ymax [2, 4]: 91% | EC50 [2, 5]: 12 µM | Protamine E (activation efficiency) [2, 6]: 5.3 | Protamine Ymax [2, 6]: 77% | EC50 ([2]; EYPC vesicles, 1 µM protamine, neutral pH 7.4, read-out: Protamine EC50): 39 µM | HeptaArg Ymax ([2]; EYPC vesicles, 10 µM heptaArg, neutral pH 7.4): 100% | HeptaArg E (activation efficiency) ([2]; EYPC vesicles, 10 µM heptaArg, neutral pH 7.4, E = Ymax(pEC50/f), f = 20.6): 4.8 | EC50 ([2]; EYPC vesicles, 10 µM heptaArg, neutral pH 7.4, read-out: HeptaArg EC50): 100 µM | efficacy when the sequence of carrier-cargo addition was reversed ([2]; heptaarginine 10 µM, Fig. 12): significantly reduces its activity

Molecule: (Et2NH2)8[{α-P^VW^VI11O39Zr^IV(µ-OH)(H2O)}2]·7H2O [[(PZrW11)2]^8-]
Hydrolysis/Stability pH 7.5 [1]: stable | POM anions with % for parent (active) anion based on signals integration ([1]; Hepes pH 7.5 after 1 day): [{α-PW11O39Zr(µ-OH)(H2O)}2]^8-·(99 %) and [Zr(α-PW11O39)2]^10- | POM anions with % for parent (active) anion based on signals integration ([1]; Hepes pH 7.5 freshly prepared): [{α-PW11O39Zr(µ-OH)(H2O)}2]^8-·(99 %) and [Zr(α-PW11O39)2]^10- | membrane transport activity ([2]; EYPC vesicles): - - -[j]

Molecule: B12Br12^2-
Hydrolysis/Stability pH 7.5 [1]: stable | Hydrolysis/Stability pH 5.5 [1]: stable | PolyArg E (activation efficiency) ([3]; 0.1 µM polyArg, pH 7.4): 12 | PolyArg Ymax ([3]; 0.1 µM polyArg, pH 7.4): 94% | EC50 ([3]; 0.1 µM polyArg, pH 7.4, read-out: PolyArg EC50): 2.6 µM | Protamine E (activation efficiency) ([3]; 1 µM protamine, pH 7.4): 8.0 | Protamine Ymax ([3]; 1 µM protamine, pH 7.4): 84% | EC50 ([3]; 1 µM protamine, pH 7.4, read-out: Protamine EC50): 11 µM | HeptaArg E (activation efficiency) ([3]; 10 µM heptaArg, pH 7.4): 6.1 | HeptaArg Ymax ([3]; 10 µM heptaArg, pH 7.4): 95% | EC50 ([3]; 10 µM heptaArg, pH 7.4, read-out: HeptaArg EC50): 48 µM

Molecule: Na3[Al^III(OH)6Mo^VI6O18]·2H2O [[AlMo6]^3-]
Hydrolysis/Stability pH 7.5 [1]: stable | POM anions with % for parent (active) anion based on signals integration ([1]; Hepes pH 7.5 after 1 day): [Al^III(OH)6MO^VI6O18]^3- | POM anions with % for parent (active) anion based on signals integration ([1]; Hepes pH 7.5 freshly prepared): [Al^III(OH)6MO^VI6O18]^3- | PolyArg E (activation efficiency) [2, 4]: 3.1 | PolyArg Ymax [2, 4]: 33% | EC50 [2, 5]: 11 µM | membrane transport activity ([2]; EYPC vesicles): - - -[j] | cargo transport in CF-loaded vesicles (qualitative) ([2]; LUVs loaded with CF, added cargo): incipient transport activity, but only for polyarginine as cargo
